Results: US20160115446A1, “Technologies, Methods, and Products of Small Molecule Directed Tissue and Organ Regeneration from Human Pluripotent Stem Cells” (SAN DIEGO REGENERATIVE MEDICINE INSTITUTE, priority 2014, published 2016)

Test system: undifferentiated hESCs
Assay: Cardiac induction of undifferentiated hESCs in defined culture by NAM (marker immunostaining, beating cardiomyocytes)
Format: cell-based, human
Text: (b) Cardiac fate switch direct of the pluripotent state of hESCs induced by nicotinamide. NAM-induced Oct-4-negative cells began to express the cardiac specific transcription factor (Csx) Nkx2.5 (green) and alpha-actinin (red), consistent with early cardiac differentiation. […] All cells are indicated by DAPI staining of their nuclei (blue). Insets at the top better visualize individual cells at higher-magnification.
(Stage 1—Human Cardiomesodermal Cells) (FIGS. 1; 2a, b). Increased intensity of Nkx2.5 was usually observed in areas of the colonies where cells began to pile up (FIG. 2b). These differentiating hESCs then formed cardioblasts that uniformly expressed Nkx2.5 in suspension (Stage 2—Human Cardiac Precursor Cells) (FIGS. 1; 3a). […] (FIGS. 1, 3b). Cells within the beating cardiospheres expressed markers characteristic of cardiomyocytes (FIG. 3b). The cardiomyocytes can retain their strong contractility for over 3 months. Electrical profiles of the cardiomyocytes confirmed their contractions to be strong rhythmic impulses reminiscent of the p-QRS-T-complexes seen from body surface electrodes in clinical electrocardiograms (FIG. 3c). Cardiac specific transcription factor (Csx) Nkx2.5 is an evolutionally conserved homeobox transcription factor indispensable for normal cardiac development. The onset and pattern of early Nkx2.5 expression roughly coincide with the timing and area of cardiac specification, and Nkx2.5 gene continues to be expressed through development in the heart. Expression of Nkx2.5 is the earliest marker for heart precursor cells in all vertebrates so far examined and is essential for proper cardiac septation and formation/maturation of electrical conduction system.

## NC(=O)c1cccnc1 [NAM, nicotinamide]
NAM 10 mM, defined culture
  expression of cardiac-specific transcription factor Csx/Nkx2.5: began expressing the earliest marker for heart precursor, Csx/Nkx2.5
NAM 10 mM, defined culture, all the cells within the colony
  expression of pluripotence-associated markers (e.g., Oct-4): down-regulated the expression of pluripotence-associated markers
Cardioblasts attached, further NAM treatment, after withdrawal of NAM, vs untreated control
  appearance of beating cardiomyocytes: drastic increase in efficiency
